The assay relates to recombinant NL4-3 virus (Renilla luciferase in nef, Gag P373S; NLRluc) in MT-2 cells. Nature of the assay: whole plant or invertebrate. The format is cell-based, HIV. Particulars: Renilla, NL43, luciferase activity in cells infected for 4-5 days with NLRluc recombinants, serial dilutions of inhibitor, read-out: EC50. In a few lines: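 MT-2 cells in RPMI 1640 with 10% heat-inactivated FBS were infected with the reporter virus, made by transfecting the proviral clone into 293T cells, and cultured 4-5 days with serial inhibitor dilutions. Antiviral activity was quantified from Renilla luciferase activity measured in lysed cells.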

Where two headings read alike, the source gives them in different places.

As for `C=C(C)[C@@H]1CC[C@]2(NCCCNC(=O)OC(C)(C)C)CC[C@]3(C)[C@H](CC[C@@H]4[C@@]5(C)CC=C(c6ccc(C(=O)O)cc6)C(C)(C)[C@@H]5CC[C@]43C)[C@@H]12` [Example 143, 4-((1R,3aS,5aR,5bR,7aR,11aS,11bR,13aR,13bR)-3a-(3-(tert-butoxycarbonylamino)propylamino)-5a,5b,8,8,11a-pentamethyl-1-(prop-1-en-2-yl)-2,3,3a,4,5,5a,5b,6,7,7a,8,11,11a,11b,12,13,13a,13b-octadecahydro-1H-cyclopenta[a]chrysen-9-yl)benzoic acid], the EC50 (class symbols (key in Table 1)) is below 100 nM. In the case of `C=C(C)[C@@H]1CC[C@]2(NCCCN3CCOCC3)CC[C@]3(C)[C@H](CC[C@@H]4[C@@]5(C)CC=C(c6ccc(C(=O)O)cc6)C(C)(C)[C@@H]5CC[C@]43C)[C@@H]12` [Example 165, 4-((1R,3aS,5aR,5bR,7aR,11aS,11bR,13aR,13bR)-5a,5b,8,8,11a-pentamethyl-3a-(3-morpholinopropylamino)-1-(prop-1-en-2-yl)-2,3,3a,4,5,5a,5b,6,7,7a,8,11,11a,11b,12,13,13a,13b-octadecahydro-1H-cyclopenta[a]chrysen-9-yl)benzoic acid], the EC50 (class symbols (key in Table 1)) was below 100 nM.

Take `C=C(C)[C@@H]1CC[C@]2(NC(=O)OC)CC[C@]3(C)[C@H](CC[C@@H]4[C@@]5(C)CC=C(c6ccc(C(=O)O)cc6)C(C)(C)[C@@H]5CC[C@]43C)[C@@H]12` [Example 36, 4-((1R,3aS,5aR,5bR,7aR,11aS,11bR,13aR,13bR)-3a-(methoxycarbonylamino)-5a,5b,8,8,11a-pentamethyl-1-(prop-1-en-2-yl)-2,3,3a,4,5,5a,5b,6,7,7a,8,11,11a,11b,12,13,13a,13b-octadecahydro-1H-cyclopenta[a]chrysen-9-yl)benzoic acid]: the EC50 (class symbols (key in Table 1)) was below 100 nM. For `C=C(C)[C@@H]1CC[C@]2(NC(=O)N3CCN(C(=O)OC(C)(C)C)CC3CC(=O)O)CC[C@]3(C)[C@H](CC[C@@H]4[C@@]5(C)CC=C(c6ccc(C(=O)O)cc6)C(C)(C)[C@@H]5CC[C@]43C)[C@@H]12` (stereo partly drawn) [Example 59, 4-((1R,3aS,5aR,5bR,7aR,11aS,11bR,13aR,13bR)-3a-(4-(tert-butoxycarbonyl)-2-(carboxymethyl)piperazine-1-carboxamido)-5a,5b,8,8,11a-pentamethyl-1-(prop-1-en-2-yl)-2,3,3a,4,5,5a,5b,6,7,7a,8,11,11a,11b,12,13,13a,13b-octadecahydro-1H-cyclopenta[a]chrysen-9-yl)benzoic acid], the EC50 (class symbols (key in Table 1)) was below 100 nM.

Take `CC(C)[C@@H]1CC[C@]2(NCCN3CCC(S(C)(=O)=O)CC3)CC[C@]3(C)[C@H](CC[C@@H]4[C@@]5(C)CC[C@H](c6ccc(C(=O)O)cc6)C(C)(C)[C@@H]5CC[C@]43C)[C@@H]12` [Example B18, 4-((1S,3aS,5aR,5bR,7aS,9S,11aS,11bR,13aR,13bR)-1-isopropyl-5a,5b,8,8,11a-pentamethyl-3a-((2-(4-(methylsulfonyl)piperidin-1-yl)ethyl)amino)icosahydro-1H-cyclopenta[a]chrysen-9-yl)benzoic acid]: for the setting “class symbols (key in Table 1)”, the EC50 was below 100 nM. Still for that read-out and setting: then `C=C(C)[C@@H]1CC[C@]2(NCCNc3nccn3C)CC[C@]3(C)[C@H](CC[C@@H]4[C@@]5(C)CC=C(c6ccc(C(=O)O)cc6)C(C)(C)[C@@H]5CC[C@]43C)[C@@H]12` [Example 191, 4-((1R,3aS,5aR,5bR,7aR,11aS,11bR,13aR,13bR)-5a,5b,8,8,11a-pentamethyl-3a-(2-(1-methyl-1H-imidazol-2-ylamino)ethylamino)-1-(prop-1-en-2-yl)-2,3,3a,4,5,5a,5b,6,7,7a,8,11,11a,11b,12,13,13a,13b-octadecahydro-1H-cyclopenta[a]chrysen-9-yl)benzoic acid], with below 100 nM; and `C=C(C)[C@@H]1CC[C@]2(NCC(=O)N(C)C)CC[C@]3(C)[C@H](CC[C@@H]4[C@@]5(C)CC=C(c6ccc(C(=O)O)cc6)C(C)(C)[C@@H]5CC[C@]43C)[C@@H]12` [Example 145, 4-((1R,3aS,5aR,5bR,7aR,11aS,11bR,13aR,13bR)-3a-(2-(dimethylamino)-2-oxoethylamino)-5a,5b,8,8,11a-pentamethyl-1-(prop-1-en-2-yl)-2,3,3a,4,5,5a,5b,6,7,7a,8,11,11a,11b,12,13,13a,13b-octadecahydro-1H-cyclopenta[a]chrysen-9-yl)benzoic acid], with below 100 nM; and `C=C(C)[C@@H]1CC[C@]2(NCC3CC3C(=O)O)CC[C@]3(C)[C@H](CC[C@@H]4[C@@]5(C)CC=C(c6ccc(C(=O)O)cc6)C(C)(C)[C@@H]5CC[C@]43C)[C@@H]12` (stereo partly drawn) [Example 157, 4-((1R,3aS,5aR,5bR,7aR,11aS,11bR,13aR,13bR)-3a-((2-carboxycyclopropyl)methylamino)-5a,5b,8,8,11a-pentamethyl-1-(prop-1-en-2-yl)-2,3,3a,4,5,5a,5b,6,7,7a,8,11,11a,11b,12,13,13a,13b-octadecahydro-1H-cyclopenta[a]chrysen-9-yl)benzoic acid], with below 100 nM. As for `C=C(C)[C@@H]1CC[C@]2(NCCN3CCOCC3)CC[C@]3(C)[C@H](CC[C@@H]4[C@@]5(C)CC=C(c6ccc(C(=O)O)cc6)C(C)(C)[C@@H]5CC[C@]43C)[C@@H]12` [Example 159, 4-((1R,3aS,5aR,5bR,7aR,11aS,11bR,13aR,13bR)-5a,5b,8,8,11a-pentamethyl-3a-(2-morpholinoethylamino)-1-(prop-1-en-2-yl)-2,3,3a,4,5,5a,5b,6,7,7a,8,11,11a,11b,12,13,13a,13b-octadecahydro-1H-cyclopenta[a]chrysen-9-yl)benzoic acid], the EC50 (class symbols (key in Table 1)) is below 100 nM. Same read-out and setting: to `C=C(C)[C@@H]1CC[C@]2(NCC3CC3)CC[C@]3(C)[C@H](CC[C@@H]4[C@@]5(C)CC=C(c6ccc(C(=O)O)cc6)C(C)(C)[C@@H]5CC[C@]43C)[C@@H]12` [Example 152, 4-((1R,3aS,5aR,5bR,7aR,11aS,11bR,13aR,13bR)-3a-(cyclopropylmethylamino)-5a,5b,8,8,11a-pentamethyl-1-(prop-1-en-2-yl)-2,3,3a,4,5,5a,5b,6,7,7a,8,11,11a,11b,12,13,13a,13b-octadecahydro-1H-cyclopenta[a]chrysen-9-yl)benzoic acid] belongs below 100 nM. On the same count and under the same terms, to `C=C(C)[C@@H]1CC[C@]2(NCC)CC[C@]3(C)[C@H](CC[C@@H]4[C@@]5(C)CC=C(c6ccc(C(=O)O)cc6)C(C)(C)[C@@H]5CC[C@]43C)[C@@H]12` [Example 180, 4-((1R,3aS,5aR,5bR,7aR,11aS,11bR,13aR,13bR)-3a-(ethylamino)-5a,5b,8,8,11a-pentamethyl-1-(prop-1-en-2-yl)-2,3,3a,4,5,5a,5b,6,7,7a,8,11,11a,11b,12,13,13a,13b-octadecahydro-1H-cyclopenta[a]chrysen-9-yl)benzoic acid] belongs below 100 nM.

Turning to `C=C(C)[C@@H]1CC[C@]2(NCCN3CCN(C(=O)C(=O)N(C)C)CC3)CC[C@]3(C)[C@H](CC[C@@H]4[C@@]5(C)CC=C(c6ccc(C(=O)O)cc6)C(C)(C)[C@@H]5CC[C@]43C)[C@@H]12` [Example B25, 4-((1R,3aS,5aR,5bR,7aR,11aS,11bR,13aR,13bR)-3a-((2-(4-(2-(dimethylamino)-2-oxoacetyl)piperazin-1-yl)ethyl)amino)-5a,5b,8,8,11a-pentamethyl-1-(prop-1-en-2-yl)-2,3,3a,4,5,5a,5b,6,7,7a,8,11,11a,11b,12,13,13a,13b-octadecahydro-1H-cyclopenta[a]chrysen-9-yl)benzoic acid], the EC50 (class symbols (key in Table 1)) is below 100 nM. `C=C(C)[C@@H]1CC[C@]2(NC(=O)N3CCCN(CCO)CC3)CC[C@]3(C)[C@H](CC[C@@H]4[C@@]5(C)CC=C(c6ccc(C(=O)O)cc6)C(C)(C)[C@@H]5CC[C@]43C)[C@@H]12` [Example 51, 4-((1R,3aS,5aR,5bR,7aR,11aS,11bR,13aR,13bR)-3a-(4-(2-hydroxyethyl)-1,4-diazepane-1-carboxamido)-5a,5b,8,8,11a-pentamethyl-1-(prop-1-en-2-yl)-2,3,3a,4,5,5a,5b,6,7,7a,8,11,11a,11b,12,13,13a,13b-octadecahydro-1H-cyclopenta[a]chrysen-9-yl)benzoic acid]: the EC50 (class symbols (key in Table 1)) was below 100 nM. Regarding `C=C(C)[C@@H]1CC[C@]2(N(CC(=O)CC)c3nc(CC)cs3)CC[C@]3(C)[C@H](CC[C@@H]4[C@@]5(C)CC=C(c6ccc(C(=O)O)cc6)C(C)(C)[C@@H]5CC[C@]43C)[C@@H]12` [Example 184A, 4-((1R,3aS,5aR,5bR,7aR,11aS,11bR,13aR,13bR)-3a-((4-ethylthiazol-2-yl)(2-oxobutyl)amino)-5a,5b,8,8,11a-pentamethyl-1-(prop-1-en-2-yl)-2,3,3a,4,5,5a,5b,6,7,7a,8,11,11a,11b,12,13,13a,13b-octadecahydro-1H-cyclopenta[a]chrysen-9-yl)benzoic acid], the EC50 (numeric values) came out at 390 nM. On to `C=C(C)[C@@H]1CC[C@]2(NCCN3CCN(S(C)(=O)=O)CC3)CC[C@]3(C)[C@H](CC[C@@H]4[C@@]5(C)CC=C(c6ccc(C(=O)O)c(F)c6)C(C)(C)[C@@H]5CC[C@]43C)[C@@H]12` [Example A8], for which the EC50 (class symbols (key in Table 1)) is below 100 nM. On the same count and under the same terms, then `C=C(C)[C@@H]1CC[C@]2(NC(=O)NCC(=O)N(C)C)CC[C@]3(C)[C@H](CC[C@@H]4[C@@]5(C)CC=C(c6ccc(C(=O)O)cc6)C(C)(C)[C@@H]5CC[C@]43C)[C@@H]12` [Example 31, 4-((1R,3aS,5aR,5bR,7aR,11aS,11bR,13aR,13bR)-3a-(3-(2-(dimethylamino)-2-oxoethyl)ureido)-5a,5b,8,8,11a-pentamethyl-1-(prop-1-en-2-yl)-2,3,3a,4,5,5a,5b,6,7,7a,8,11,11a,11b,12,13,13a,13b-octadecahydro-1H-cyclopenta[a]chrysen-9-yl)benzoic acid], with below 100 nM.

For the origin of these results see patent US20140343000A1 (priority 2011, published 2014).
